This assay has as its system Escherichia coli strain ATCC25922. As to the kind of experiment: standard microdilution assay to determine minimum inhibitory concentrations (MICs). The class given is cell-based. The conditions noted are these: Escherichia coli strain ATCC25922, microdilution. In outline:
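Broth microdilution per CLSI (M7-A8/M100-S20), 100 μl final volume, with reference-strain quality control; MIC is the lowest inhibitory concentration. Scored "+"/"−" against a 16 micrograms/ml cutoff, "N/A" where unavailable.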
`CC(CCN)Cc1cc(SC(F)(F)F)cc(-c2cc3cn(-c4ccc([C@H](C)NCCCNC(=N)N)cc4)c(=O)nc3[nH]2)c1` (stereo partly drawn) [Compound 247]: the “E. coli ATCC25922 MIC” value is reported as “+ (a “+” indicates that the compound has an MIC value of 16 micrograms/ml or less)”.
As for `C[C@H](N)CCCc1cc(-c2cc3cn(-c4ccc(CNCCCNC(=N)N)cc4)c(=O)nc3[nH]2)cc(C(F)(F)F)c1` [Compound 248], the “E. coli ATCC25922 MIC” value is on record as “+ (a “+” indicates that the compound has an MIC value of 16 micrograms/ml or less)”.
`C[C@@H](N)CCCc1cc(-c2cc3cn(-c4ccc(CNCCCNC(=N)N)cc4)c(=O)nc3[nH]2)cc(C(F)(F)F)c1` [Compound 249]: the “E. coli ATCC25922 MIC” value is listed as “+ (a “+” indicates that the compound has an MIC value of 16 micrograms/ml or less)”.
In the case of `N=C(N)NCCCNCc1ccc(-n2cc3cc(-c4cc(CCCCN)cc(CN)c4C(F)(F)F)[nH]c3nc2=O)cc1` [Compound 250], the “E. coli ATCC25922 MIC” value is “+ (a “+” indicates that the compound has an MIC value of 16 micrograms/ml or less)”.
On to `CCCOc1cc(CCCCN)cc(-c2cc3cn(-c4ccc(CNCCCNC(=N)N)cc4)c(=O)nc3[nH]2)c1C(F)(F)F` [Compound 251], for which the “E. coli ATCC25922 MIC” value is given as “+ (a “+” indicates that the compound has an MIC value of 16 micrograms/ml or less)”.
Consider `N=C(N)NCCCNCc1ccc(-n2cc3cc(-c4cc(CC(O)CCN)cc(OC(F)(F)F)c4)[nH]c3nc2=O)cc1` (stereo not drawn) [Compound 252], for which the “E. coli ATCC25922 MIC” value is recorded as “+ (a “+” indicates that the compound has an MIC value of 16 micrograms/ml or less)”.
In the case of `N=C(N)NCCCNCc1ccc(-n2cc3cc(-c4cc(CCC5(CN)CCC5)cc(Cl)c4F)[nH]c3nc2=O)cc1` [Compound 253], the “E. coli ATCC25922 MIC” value is “+ (a “+” indicates that the compound has an MIC value of 16 micrograms/ml or less)”.
With `N=C(N)NCCCNCc1ccc(-n2cc3cc(-c4cc(CCC(O)CN)cc(Cl)c4F)[nH]c3nc2=O)cc1` (stereo not drawn) [Compound 254] the entry was “+ (a “+” indicates that the compound has an MIC value of 16 micrograms/ml or less)”; with `CC(C)(N)CCc1cc(OC(F)(F)F)cc(-c2cc3cn(-c4ccc(CNCCCNC(=N)N)cc4)c(=O)nc3[nH]2)c1` [Compound 255], “+ (a “+” indicates that the compound has an MIC value of 16 micrograms/ml or less)”; with `CC(CN)Cc1cc(Cl)c(F)c(-c2cc3cn(-c4ccc(CNCCCNC(=N)N)cc4)c(=O)nc3[nH]2)c1` (stereo not drawn) [Compound 256], “+ (a “+” indicates that the compound has an MIC value of 16 micrograms/ml or less)”.
Turning to `CC(N)CCc1cc(Cl)c(F)c(-c2cc3cn(-c4ccc(CNCCCNC(=N)N)cc4)c(=O)nc3[nH]2)c1` (stereo not drawn) [Compound 257], the “E. coli ATCC25922 MIC” value is reported as “+ (a “+” indicates that the compound has an MIC value of 16 micrograms/ml or less)”.
With `N=C(N)NCCCNCc1ccc(-n2cc3cc(-c4cc(CCC(O)CN)ccc4F)[nH]c3nc2=O)cc1` (stereo not drawn) [Compound 258] the entry was “+ (a “+” indicates that the compound has an MIC value of 16 micrograms/ml or less)”.
For `CC(C)(N)CCc1cc(-c2cc3cn(-c4ccc(CNCCCNC(=N)N)cc4)c(=O)nc3[nH]2)cc(C(F)(F)F)c1` [Compound 259], the “E. coli ATCC25922 MIC” value is recorded as “+ (a “+” indicates that the compound has an MIC value of 16 micrograms/ml or less)”.
`CC(N)CCc1cc(OC(F)(F)F)cc(-c2cc3cn(-c4ccc(CNCCCNC(=N)N)cc4)c(=O)nc3[nH]2)c1` (stereo not drawn) [Compound 260]: the “E. coli ATCC25922 MIC” value is reported as “+ (a “+” indicates that the compound has an MIC value of 16 micrograms/ml or less)”.
As to `CC(C)c1cc(CCC[C@H](C)N)cc(-c2cc3cn(-c4ccc(CNCCCNC(=N)N)cc4)c(=O)nc3[nH]2)c1Cl` [Compound 261], the “E. coli ATCC25922 MIC” value is recorded as “+ (a “+” indicates that the compound has an MIC value of 16 micrograms/ml or less)”.
With `CSc1cc(CCCCN)cc(-c2cc3cn(-c4ccc(CNCCCNC(=N)N)cc4)c(=O)nc3[nH]2)c1C(F)(F)F` [Compound 262] the entry was “+ (a “+” indicates that the compound has an MIC value of 16 micrograms/ml or less)”; with `C[C@H](NCCCNC(=N)N)c1ccc(-n2cc3cc(-c4cc(CCCC(C)(C)N)cc(OC(F)(F)F)c4)[nH]c3nc2=O)cc1` [Compound 264], “+ (a “+” indicates that the compound has an MIC value of 16 micrograms/ml or less)”.
With `COc1cc(CCCCN)cc(-c2cc3cn(-c4ccc(CNCCCNC(=N)N)cc4)c(=O)nc3[nH]2)c1C(F)(F)F` [Compound 265], the “E. coli ATCC25922 MIC” value was “+ (a “+” indicates that the compound has an MIC value of 16 micrograms/ml or less)”.
Turning to `CC(N)CCCc1cc(CCl)cc(-c2cc3cn(-c4ccc(CNCCCNC(=N)N)cc4)c(=O)nc3[nH]2)c1` (stereo not drawn) [Compound 266], the “E. coli ATCC25922 MIC” value is “+ (a “+” indicates that the compound has an MIC value of 16 micrograms/ml or less)”.
As to `N=C(N)NCCCNCc1ccc(-n2cc3cc(-c4cc(Cl)c(F)c(CCCCN)c4)[nH]c3nc2=O)cc1` [Compound 267], the “E. coli ATCC25922 MIC” value is listed as “+ (a “+” indicates that the compound has an MIC value of 16 micrograms/ml or less)”.
With `CC(N)CCCc1cc(Cl)c(F)c(-c2cc3cn(-c4ccc(CNCCCNC(=N)N)cc4)c(=O)nc3[nH]2)c1` (stereo not drawn) [Compound 268] the entry was “+ (a “+” indicates that the compound has an MIC value of 16 micrograms/ml or less)”.
Consider `CC(N)CCCc1cc(Cl)c(F)c(-c2cc3cn(-c4ccc(C(C)NCCCNC(=N)N)cc4)c(=O)nc3[nH]2)c1` (stereo not drawn) [Compound 269], for which the “E. coli ATCC25922 MIC” value is given as “+ (a “+” indicates that the compound has an MIC value of 16 micrograms/ml or less)”.
In the case of `CC(NCCCNC(=N)N)c1ccc(-n2cc3cc(-c4cc(CCC5(CN)CC5)cc(Cl)c4F)[nH]c3nc2=O)cc1` (stereo not drawn) [Compound 272], the “E. coli ATCC25922 MIC” value is “+ (a “+” indicates that the compound has an MIC value of 16 micrograms/ml or less)”.
In the case of `CC(N)CCCc1cc(-c2cc3cn(-c4ccc(C(C)NCCCNC(=N)N)cc4)c(=O)nc3[nH]2)c(F)c(C(F)(F)F)c1` (stereo not drawn) [Compound 274], the “E. coli ATCC25922 MIC” value was “+ (a “+” indicates that the compound has an MIC value of 16 micrograms/ml or less)”.
With `CC(N)CCCc1cc(-c2cc3cn(-c4ccc(CNCCCNC(=N)N)cc4)c(=O)nc3[nH]2)c(F)c(C(F)(F)F)c1` (stereo not drawn) [Compound 275] the entry was “+ (a “+” indicates that the compound has an MIC value of 16 micrograms/ml or less)”.
As for `CC(CCCc1cc(-c2cc3cn(-c4ccc(C(C)NCCCNC(=N)N)cc4)c(=O)nc3[nH]2)cc(C(F)(F)F)c1)NC(=N)N` (stereo not drawn) [Compound 276], the entry is “+ (a “+” indicates that the compound has an MIC value of 16 micrograms/ml or less)”; as for `CC(N)CCc1cc(Cl)c(F)c(-c2cc3cn(-c4ccc(CNCCCNC(=N)N)cc4)c(=O)nc3[nH]2)c1` (stereo not drawn) [Compound 278], “+ (a “+” indicates that the compound has an MIC value of 16 micrograms/ml or less)”.
With `CC(CN)Cc1cc(-c2cc3cn(-c4ccc(CNCCCNC(=N)N)cc4)c(=O)nc3[nH]2)c(F)c(C(F)(F)F)c1` (stereo not drawn) [Compound 280], the “E. coli ATCC25922 MIC” value is “+ (a “+” indicates that the compound has an MIC value of 16 micrograms/ml or less)”.
As for `CC(N)CCCc1cc(OC(F)(F)F)c(Cl)c(-c2cc3cn(-c4ccc(CNCCCNC(=N)N)cc4)c(=O)nc3[nH]2)c1` (stereo not drawn) [Compound 281], the “E. coli ATCC25922 MIC” value is “+ (a “+” indicates that the compound has an MIC value of 16 micrograms/ml or less)”.
With `CC(N)CCCc1cc(OC(F)(F)F)c(Cl)c(-c2cc3cn(-c4ccc(C(C)NCCCNC(=N)N)cc4)c(=O)nc3[nH]2)c1` (stereo not drawn) [Compound 282] the entry was “+ (a “+” indicates that the compound has an MIC value of 16 micrograms/ml or less)”.
